Patent US10080747B2, “Nicotinic attenuation of CNS inflammation and autoimmunity” (priority 2008, dated 2018)
Read-outs that look alike come from different tables or passages of the source.

Tests used:
spinal cord of EAE mice = conditions: day 25 p.i., vs PBS
Experimental: Mice were anesthetized with pentobarbital and perfused by intracardiac puncture with 50 ml of cold PBS. Spinal cords were removed and fixed in 10% formalin/PBS. Paraffin-embedded longitudinal sections were prepared and stained for hematoxylin and eosin (H&E), luxol fast blue (LFB, myelin staining) and Biechowsky silver (axon staining). The percentages of spinal cord inflammation, demyelination and axonal damage per mouse were calculated by first determining the total white matter area for all spinal cord sections by manually tracing the regions. Next, the areas of spinal cord inflammation, demyelination and axonal damage were determined by manually tracing each section. Pathological changes in each spinal cord were scored as follows: 0 no changes; 1 focal area involvement; 2 <5% of total myelin area involved; 3 5-10% of total myelin area involved; 4 10-20% involved area; 5 >20% of total myelin area involved (Bai, X. F., et al., J Exp Med 200:447-458).

[1] = system: MOG35-55-specific T cells; conditions: splenocytes day 11 p.i.
Description: Isotype-matched negative monoclonal antibodies were used as controls.

Th cells = system: Th cells
Experimental: Single cell suspensions (4×10^7 cells) were prepared and incubated at 37° C. for 3 days in round-bottom plates (2×10^6 cells/well) with or without antigens (MOG 10 μg/ml, PLP 10 µg/ml or Con A 2.5 μg/ml), and stimulated with PMA (20 ng/ml)/ionomycin (1 μg/ml)/brefeldin A (5 μg/ml) for another 5 h at 37° C. After harvesting, cells were stained for surface markers with fluorochrome-conjugated monoclonal antibodies including anti-CD3-PE/Cy5 (17A2), anti-CD4-APC/Cy7 (GK1.5), and anti-CD8α-PE/Cy7 (53-6.7) (BD Bioscience). Isotype-matched negative monoclonal antibodies were used as controls. For intracellular cytokine staining, after fixation and permeabilization with Cytofix/Cytoperm kit (BD Bioscience), anti-IFN-γ, anti-IL-4, anti-IL-10 and anti-IL-17 monoclonal antibody conjugated with Alexa 647 were used. All samples were analyzed on a FACSAria using Diva. To determine the percentage of cells producing cytokine, the value obtained with the isotype control was subtracted from that with specific antibody. For cytokine induction, supernatants were collected 3 days after in vitro boosting. IFN-γ, IL-10, IL-2 and TGF-β were measured by optEIA kits (PharMingen and eBioscience).

MOG-specific antibodies = system: MOG-specific antibodies
Experimental: MOG-reactive antibodies were quantified by enzyme-linked immunoabsorbent assay (ELISA). Briefly, microtiter plates (Corning Glass Works, Corning, N.Y., USA) were coated with 100 μl/well of murine MOG35-55 (10 μg/ml) at 4° C. overnight. After blocking with 10% fetal bovine serum, serum samples (day 11, peak stage after immunization) were added and incubated at 4° C. overnight. Plates were then incubated for 2 h with biotinylated rabbit anti-mouse IgG, IgG1, IgG2a, IgA, IgG3 and IgG2b (Invitrogen, Carlsbad, Calif., USA), followed by alkaline phosphatase-conjugated ABC reagent (Dakopatts; R&D systems, Minneapolis, Minn., USA). The color was developed with p-nitrophenyl-phosphate. Results were expressed as optical density (OD) at […].

CNS mononuclear cells = conditions: day 11 p.i.
Experimental: For CNS cell isolates, at day 11 after EAE induction (peak stage), mice were sacrificed and perfused with PBS through the left heart ventricle to eliminate contaminating blood cells in the CNS. The CNS mononuclear cells were then isolated from five to six mice using Percoll gradients and stained for cell surface markers. Antibodies were directly labeled and analyzed as done for splenocytes. The absolute number of a particular cell subset was calculated by counting the total number of mononuclear cells isolated from the CNS of individual mice and multiplying by the percentage of those cells acquired by FACSAria flow cytometry (Bai, X. F., et al., J Exp Med 200:447-458).

acute EAE in B6 mice = conditions: for mean clinical score, remaining mild motor deficit after recovery: PBS 2.75±0.25; for mean maximal clinical score: scale 0 to 5, PBS 4.25±0.80
[2] = system: adoptively transferred EAE in B6 mice; conditions: recipients of T cells from nicotine-treated donors
spleen mononuclear cells [3] = conditions: day 11 p.i.
spleen mononuclear cells [4] = conditions: annexin V and PI double staining, at the current dose (13 mg/kg/d)
Experimental: Cell viability was assessed by trypan blue dye exclusion. […] Single cell suspensions were washed in PBS and resuspended in binding buffer containing annexin V-FITC and propidium iodide (PI) (both from BD Biosciences) for 20 min at room temperature. The samples were analyzed on a FACSAria using Diva.

[5] = supernatants of splenocytes cultured with MOG35-55, vs controls
[6] = serum day 11 after immunization, vs control mice
[7] = nicotine pre-treated group (day −7)

CN1CCCC1c1cccnc1 (centres unmarked) [nicotine]
axonal damage, Biechowsky silver (spinal cord of EAE mice): scarcely affected | demyelination, LFB staining (spinal cord of EAE mice): myelin sheets were largely preserved | spinal cord inflammation (cellular infiltration), H&E (spinal cord of EAE mice): few infiltrating cells | T cell proliferation in response to MOG, 3H incorporation ([1]; p<0.05 vs PBS): far fewer T cells | proliferation of CD3+, CD4+ and CD8+ T cells in response to MOG, CFSE assay ([1]; vs PBS): reduced proliferation | production of TGF-β1 (Th cells; supernatants of splenocytes cultured with MOG35-55, p<0.01): significantly augmented | production of IL-10 (Th cells; supernatants of splenocytes cultured with MOG35-55, p<0.05): significantly augmented | IFN-γ production (Th cells; [5]): significant decrease | production of IL-2 (Th cells; [5]): decreased | MOG-specific IgG2b production (MOG-specific antibodies; mouse, in vivo): profoundly impaired | MOG-specific IgA synthesis (MOG-specific antibodies; [6]): markedly increased | MOG-specific IgG1 synthesis (MOG-specific antibodies; [6]): markedly increased | CD11b+ (macrophage/microglia) and CD11c+ (dendritic) cells in the CNS (CNS mononuclear cells; vs PBS): lower percentages and absolute numbers | expression of MHC class II, CD80 and CD86 on CNS CD11c and CD11b cells (CNS mononuclear cells; vs PBS): reduced | numbers of T cells (CD3+, CD4+, CD8+) and B cells (CD3−CD19+) in the CNS (CNS mononuclear cells; vs PBS-treated EAE mice): drastically reduced | onset of EAE (acute EAE in B6 mice; nicotine 13 mg/kg/d for 7 days by minipump, prior to or on the day of disease induction, PBS controls 7.6±0.53 days): ≥ 10 day p.i. | day by which the majority of animals recovered (acute EAE in B6 mice; [7]): ≤ 21 days | mean clinical score, remaining mild motor deficit after recovery (acute EAE in B6 mice; [7]): 0.83±0.26 | day by which the majority of animals recovered (acute EAE in B6 mice; nicotine-treated group (day 0)): ≤ 24 days | mean clinical score, remaining mild motor deficit after recovery (acute EAE in B6 mice; nicotine-treated group (day 0)): 0.85±0.25 | mean maximal clinical score (acute EAE in B6 mice; pre-treatment starting day −7, 13 mg/kg/d x 7): 3.17±0.78 | mean maximal clinical score (acute EAE in B6 mice; treatment starting day 0 after immunization, 13 mg/kg/d x 7): 3.13±0.25 | severity of EAE compared with PBS (acute EAE in B6 mice; treatment starting day 7 p.i. when EAE signs began, 13 mg/kg/d x 7): significantly milder EAE | mean clinical score at the termination of experiments (acute EAE in B6 mice; treatment starting day 7 p.i., 13 mg/kg/d x 7): 0.69±0.43 | mean clinical score [2]: 1.0±0.15 | maximal clinical score ([2]; control 5.0±0.25): 2.5±0.82 | percentages and numbers of CD3+, CD4+ and CD8+ T cells and CD19+CD3− B cells among splenocytes (spleen mononuclear cells [3]; nicotine from day 0, vs control EAE mice, p<0.05): various degrees of reductions | expression of Foxp3 (spleen mononuclear cells [3]; spleen, vs PBS): clearly augmented | NK cells, NKT cells and CD4+CD25+ regulatory T cells in spleen (spleen mononuclear cells [3]; vs PBS): did not differ significantly | expression of MHC class II, CD80 and CD86 on peripheral CD11c+ and CD11b+ cells (spleen mononuclear cells [3]; vs PBS): reductions in the expression of MHC class II, CD80 and CD86 were notable | numbers and percentages of CD11c+ and CD11b+ cells in spleen (spleen mononuclear cells [3]; vs PBS): not dramatically altered | T cell apoptosis and death (spleen mononuclear cells [4]): did not induce T cell apoptosis
